Measured values from publication PMC11962429, “Unraveling human transferrin-tryptamine interactions: a computational and biophysical approach to Alzheimer’s disease therapeutics” (Frontiers in Pharmacology, 2025).

Target: T1, Human transferrin (Htf) (Homo sapiens, UniProt P02787)
T1 construct: gene TF; single-chain glycoprotein of 679 amino acids (mature plasma protein)
Assay: intrinsic fluorescence quenching, modified Stern-Volmer
Type: binding
Details: 5 μM protein, sodium phosphate (PBS) buffer, excitation 280 nm, emission 300-400 nm, ligand 1-10 μM from DMSO stock; pH and temperature not given

T1 sequence (P02787 20-698): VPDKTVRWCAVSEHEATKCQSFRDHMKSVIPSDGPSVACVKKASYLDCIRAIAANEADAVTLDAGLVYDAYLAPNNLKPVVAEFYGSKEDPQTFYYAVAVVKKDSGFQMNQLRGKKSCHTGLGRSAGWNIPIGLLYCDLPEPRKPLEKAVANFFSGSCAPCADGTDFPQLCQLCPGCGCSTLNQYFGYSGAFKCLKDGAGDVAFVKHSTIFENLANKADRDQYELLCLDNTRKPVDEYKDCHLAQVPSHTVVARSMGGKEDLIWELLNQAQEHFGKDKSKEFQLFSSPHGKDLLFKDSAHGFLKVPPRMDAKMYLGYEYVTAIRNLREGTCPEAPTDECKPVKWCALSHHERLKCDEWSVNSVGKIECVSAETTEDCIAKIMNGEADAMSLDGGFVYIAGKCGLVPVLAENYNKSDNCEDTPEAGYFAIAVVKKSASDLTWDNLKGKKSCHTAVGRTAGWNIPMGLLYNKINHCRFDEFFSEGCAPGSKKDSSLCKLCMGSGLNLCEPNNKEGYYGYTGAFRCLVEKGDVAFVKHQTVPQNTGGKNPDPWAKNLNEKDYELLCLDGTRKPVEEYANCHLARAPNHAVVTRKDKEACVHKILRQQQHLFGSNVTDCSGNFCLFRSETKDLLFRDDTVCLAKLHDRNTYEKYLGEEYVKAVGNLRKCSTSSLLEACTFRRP

Compound: NCCc1c[nH]c2ccccc12 [Tryptamine]
- K: 480000 M⁻¹
